In ChEMBL document CHEMBL3734681, “Sortase A Inhibitors: Recent Advances and Future Perspectives” (J Med Chem, 2015):
Values after ≈ are worked out from the molar mass of the structure shown.

Tests used:
[1] = Inhibition of Staphylococcus aureus ATCC 6538p recombinant SrtA after 1 hr by spectrometery using Dabcyl-QALPETGEE-Edans as substrate
[2] = Inhibition of Staphylococcus aureus ATCC 6538p SrtA by spectrometery
[3] = Inhibition of Staphylococcus aureus SrtA after 2 hrs
[4] = Inhibition of Bacillus anthracis SrtA
[5] = Inhibition of Staphylococcus aureus SrtA
[6] = Inhibition of Staphylococcus aureus SrtA by FRET assay
[7] = Competitive inhibition of Staphylococcus aureus ATCC 6538p recombinant SrtA by spectrometery using Dabcyl-QALPETGEE-Edans as substrate

Work on `COC(=O)/C(=C/c1ccc(OC)cc1)c1ccc(OC)cc1` yielded an IC50 ([1]; read-out: IC50) of 231 µM.

Work on `COc1cc(/C=C/C(=O)CC(=O)/C=C/c2ccc(O)c(OC)c2)ccc1O` [CURCUMIN] yielded an IC50 [2] of 13.8 mg/L (≈ 37.5 µM).

`CN(C)CCC(=O)c1cccs1` gave an IC50 [3] of 47 µM and an IC50 [4] of 4.8 µM.

Compound `COc1ccc2cc3[n+](cc2c1OC)CCc1cc2c(cc1-3)OCO2.[Cl-]` [BERBERINE CHLORIDE] has an IC50 [1] of 8.7 mg/L.

`C=C(C)[C@H](CCC(C)(C)O)Cc1c(O)cc(OC)c2c1O[C@H](c1ccc(O)cc1O)CC2=O` [KURARINOL] gave an IC50 [5] of 48.8 mg/L (≈ 107 µM).

For `CN(C)CCC(=O)c1ccc(Cl)c(Cl)c1`, the IC50 [3] was 15 µM and the IC50 [4] was 5.6 µM.

With `COc1ccc(/C=C(\C#N)c2ccc(OC)cc2)cc1` the IC50 ([1]; read-out: IC50) was 28 µM.

Compound `CC[C@H](CC[C@@H](C)[C@H]1CC[C@H]2[C@@H]3CC[C@@H]4C[C@@H](O[C@@H]5O[C@H](CO)[C@@H](O)[C@H](O)[C@H]5O)CC[C@]4(C)[C@H]3CC[C@]12C)C(C)C` has an IC50 [1] of 18.3 mg/L.

`O=C(O)COc1ccccc1C1Nc2cccc3cccc(c23)N1` gave an IC50 [6] of 15.12 mg/L (≈ 47.2 µM).

Compound `Clc1ccccc1-c1nn2c(-c3ccncc3)nnc2s1` has an IC50 [5] of 11.78 mg/L (≈ 37.5 µM).

In the case of `COc1ccc(/C(C#N)=C/c2cc(OC)ccc2OC)cc1`, the IC50 ([1]; read-out: IC50) is reported as 9.2 µM and the Ki [7] is reported as 6.81 µM.
